What was measured:
[1] = Disarib solubility assay (shake flask method, HPLC); assay type: physicochemical; details: Disarib 100 µM
Procedure: The solubility of Disarib was determined by the shake flask method, as described earlier. Briefly, Disarib (100 μM) was dissolved in various solvents such as alcohol (40, 60, 80 and 100%), acid (0.1, 0.3 and 0.6 N HCl) and DMSO (25, 50, 75 and 100%). Further, solubility of Disarib was also tested in a combination of alcohol (40, 60%) and acid (0.1, 0.3 N). The suspension was vortexed 2–3 min and kept in a water bath for 5 min, as described before[25],[26],[39]. In each case, the samples were diluted in acetonitrile and analyzed using HPLC in acetonitrile:water gradient[27],[40]. The area under the curve (AUC) was determined by using the software LabSolutions, Shimadzu (Japan). The values used for plotting in GraphPad Prism (ver 5.1) softwarewere the mean of three independent experiments. The samples were analyzed by HPLC using the Shimadzu HPLC system. LC was carried out on the C18 analytical column. The mobile phase was the gradient of acetonitrile and water. Disarib specific peaks were detected at 232 nm. The injection volume was 20 μl, and the flow rate was 1.2 ml/min. The standard curves were constructed by plotting the peak area vs. concentration of Disarib[40].

mice = details: cited from earlier work
mice tumor models = details: cited from earlier work
Wistar rats [2] = assay: Serum biochemistry (liver and kidney function); assay type: in vivo, Wistar rats (Rattus norvegicus); details: serum day 14
Procedure: After 14 days of Disarib administration, two animals were sacrificed using CO2 asphyxiation from each group, and blood was collected in tubes without using anticoagulant and centrifuged (900×g, 10 min). Serum glutamic pyruvic transaminase (SGPT), serum glutamic oxaloacetic transaminase (SGOT), alkaline phosphatase (ALP), albumin, total protein, bilirubin, blood urea nitrogen (BUN), creatinine, uric acid, and phosphorous were analyzed as described earlier[28],[29]. Analysis of serum samples was performed at Rohana Veterinary Diagnostic Lab, Bangalore, India.

[3] = parameters: method as in PMID 27693384; details: mice, cited from earlier work
BCL2 = system: BCL2; parameters: method as in PMID 28223017, PMID 27693384; details: cited from earlier work
bone marrow cells = assay: Micronucleus assay for genotoxicity; assay type: in vivo; details: Wistar rats, 50 mg/kg b. wt. oral; 24, 48 and 72 h post-treatment
Procedure: To evaluate genotoxicity caused by Disarib at the effective dose, micronucleus assay was performed[32]–[34]. Wistar rats (n = 6) were orally administered with Disarib (50 mg/kg), and bone marrow cells were collected after 24, 48, and 72 h post-treatment. Bone marrow cells were flushed out in 1X PBS containing EDTA, centrifuged, fixed (2% PFA) and stained with DAPI. Cells exposed to γ-irradiation (4 Gy) served as a positive control for the assay and were imaged using a fluorescence microscope (Nikon, Tokyo, Japan). At least 500 cells were counted from each animal for each time point, and data was plotted and represented as a bar diagram.

[4] = system: interaction of BCL2 with BAX; parameters: method as in PMID 28223017; details: cited from earlier work
[5] = In vitro stability of Disarib in plasma (HPLC); assay type: in vitro ADME, rats; details: 80% plasma diluted in PBS; 37 °C; 0, 2, 4, 6 h; HPLC peak
Procedure: (§1) The stability of Disarib (100 μM) was investigated in phosphate-buffered saline (PBS) and in plasma. The blood was collected from rats by heart puncture, and plasma was separated for the study. After the addition of Disarib into plasma or PBS, the mixture was incubated at 37 °C in water bath[25],[26]. The samples were then collected at different time points, 0, 2, 4, and 6 h, mixed manually with acetonitrile (1:1), and analyzed on HPLC[27],[40]. The values plotted represent the mean of three independent experiments. The samples were analyzed by HPLC using the Shimadzu HPLC system. LC was carried out on the C18 analytical column. The mobile phase was the gradient of acetonitrile and water. Disarib specific peaks were detected at 232 nm. The injection volume was 20 μl, and the flow rate was 1.2 ml/min. The standard curves were constructed by plotting the peak area vs. concentration of Disarib[40].

[6] = Stability of Disarib in PBS (HPLC); assay type: physicochemical; details: 37 °C; 0, 2, 4, 6 h; HPLC peak
Procedure: as §1

Wistar rats [7] = assay: Histology (H&E) of organs; assay type: in vivo, Wistar rats (Rattus norvegicus); details: 2000 mg/kg oral, day 14, H&E
Procedure: At the end of the experimental period (14 days), two animals from each group were sacrificed following CO2 asphyxiation. Liver, kidney, intestine, spleen, lungs, and heart were collected, fixed in 4% paraformaldehyde (PFA) and processed for histology, as described before[44]–[46]. For histological studies, tissues from rats treated with the highest dose (2000 mg/kg) and the vehicle control group were selected. Paraffin blocks were prepared and sections were taken using a rotary microtome (Leica Biosystems, Buffalo Grove, IL, USA) with a thickness of 5 µm. Following deparaffination, sections were stained with hematoxylin and eosin (H&E), mounted in DPX, and imaged under a bright-field microscope (Carl Zeiss AxioVision, Oberkochen, Germany).

[8] = Wistar rats, 100, 1000, 2000 mg/kg oral

O=C1Nc2ccccc2/C1=C/c1c(-c2ccc(Br)cc2)nc2sc(Cc3ccc(Cl)cc3)nn12 [Disarib]
solubility in HCl ([1]; 0.1, 0.3 and 0.6 N HCl tested): soluble only in higher acidic conditions such as 0.3 N HCl
DMSO concentration giving complete dissolution ([1]; HPLC at 232 nm): > 75%
solubility in alcohol in combination with HCl ([1]; alcohol 40, 60% with HCl): soluble in 40% alcohol and 0.3 and 0.6 N HCl
visible toxicity (mice; highest dose 2000 mg/kg oral): did not cause any visible toxicity
LD50 (mice; oral route): > 2000 mg/kg
platelet count (mice; oral, even at the highest dose): did not affect the platelet count
tumor regression (mice tumor models; mice, intraperitoneal route): efficient tumor regression comparable to that of ABT199
tumor progression (mice tumor models; oral administration, multiple mice tumor models): significant reduction in tumor progression
hepatic function tests (SGPT, ALP, SGOT, total protein, Albumin, Bilirubin) (Wistar rats [2]; [8]): did not cause any adverse effect on liver function
renal function (BUN, Creatinine, Phosphorous, Uric acid) vs control (Wistar rats [2]; [8]): did not have any appreciable variation
ALP level vs control (Wistar rats [2]; Wistar rats, 100 and 1000 mg/kg oral, higher than control): the increase was limited and was not significant
SGOT level vs control (Wistar rats [2]; Wistar rats, maximal dose (2000 mg/kg) oral, within normal range, not significant): marginally higher
time at which maximum circulating concentration (Cmax) was obtained ([3]; 10 mg/kg intraperitoneal): 30 min
clearance rate (CL) [3]: 6.3 mL/min/kg
t1/2 [3]: 2.3 h
interaction with BCL2 (BCL2): specifically interacted with BCL2
genotoxicity (micronucleus formation in bone marrow cells) (bone marrow cells): no DNA damage induced by Disarib
disruption of BCL2-BAX interaction [4]: did not disrupt the interaction of BCL2 with BAX
stability in plasma [5]: gradually decreased in plasma with increasing time
stability in PBS [6]: stable in PBS up to 6 h
intestine histology (Wistar rats [7]): Normal structure and organization
kidney histology (Wistar rats [7]): No glomerular dilation and tubular necrosis
liver histology (Wistar rats [7]): no cellular change in lobular liver texture, hepatocytes and sinusoidal spaces
lungs and heart histology (Wistar rats [7]): did not show difference in the structure of alveoli and cardiac muscles
spleen histology (Wistar rats [7]): no difference in spleen architecture
